Results reported in patent EP0486045A2, “S(+)-Phenyl-alkanoic acids and alpha-amino acid containing complexes” (MEDICE Chem.-Pharm. Fabrik Pütter GmbH & Co. KG, priority 1990, dated 1992).
“And” between values parts separate entries of the source, which are not always exact repeats. Identical values can stand only once. Like-named read-outs stand apart in the source and are kept apart here.

Key:
[1] = Pharmacokinetic comparison after a single oral dose of 150 mg S-(+)-Ibuprofen, free acid tablet vs D-Lysinat (Tabelle 5); conditions: for Ae conj. I / Ae, free 1 / tlag: single oral dose 150 mg S-(+)-Ibuprofen, Mean ± SD
clinical = conditions: human, in vivo, po, 150 mg
[2] = Pharmacokinetics of S-(+)-Ibuprofen-D-Lysinat capsules (200 mg S-(+)-Ibuprofen, oral) in 24 subjects
[3] = Adverse drug effects, laboratory parameters and medical follow-up in the study; type: in vivo, Probandinnen; conditions: up to 3 x daily 200 mg on 3 days
Description: Unerwünschte Arzneimittelwirkungen traten bei keiner Teilnehmerin an der Studie auf.

[4] = human, in vivo, po, 150 mg
primärer Dysmenorrhör = test: Pharmacodynamics: pain intensity on a visual analogue scale (0 - 10), self-rated; type: in vivo, Probandinnen
Description: In einer monozentrienden Studie wurde die Pharmakodynamik bei primärer Dysmenorrhör an 24 Probandinnen untersucht. Die Mittelwerte aller Probandinnen als Auswertung einer Schmerzintensitätsskala sind in Tabelle 4 sowie Fig. 4 graphisch dargestellt. Die Schmerzintensität wurde anhand der visuellen Analogskala (einer von 0 - 10 offenen Skala) von den Probandinnen im Rahmen einer Selbstbeurteilung angegeben.
Wie aus Fig. 4 zu ersehen, betrug die mittlere Schmerzintensität zum Zeitpunkt Null 4,7, die analgetische Wirksamkeit setzte innerhalb von 5 Minuten ein und verminderte sich innerhalb der ersten 45 Minuten auf einen Wert von im Mittel 1,65. Die maximale analgetische Wirkung wurde nach 2 Stunden mit einem Wert von 0,36 erreicht. Anschließend stieg die Schmerzintensität bis auf einen Wert von 0,83 nach 6 Stunden wieder langsam an. Die Fig. 4 zeigt die Schmerzintensitätskurve der Probandinnen.

In the case of `CC(C)Cc1ccc([C@H](C)C(=O)O)cc1` [S-(+)-Ibuprofen, freie Säure, S-(+)-Ibuprofen], the AUC ([1]; human, in vivo, po, 150 mg) is reported as 44500 ng·h/mL, the tmax ([1]; human, in vivo, po, 150 mg) is reported as 2 h and the “Ae conj. I” value [1] is reported as 8,0 ± 2,9. The “Ae, free 1” value [1] was 0,6 ± 0,2 % of dose, the tlag [1] was 0,5 ± 0,1 h and the Cmax (clinical) was 10900 ng/mL.
With `CC(C)Cc1ccc([C@H](C)C(=O)O)cc1.NCCCC[C@@H](N)C(=O)O` [S-(+)-Ibuprofen-D-Lysinat] the “Ae conj. I” value [1] was 9,3 ± 5,4, the “Ae, free 1” value [1] was 0,6 ± 0,5 % of dose and the tlag [1] was 0,1 ± 0,02 h. For the same compound, the “AUC (Trapez)” value ([2]; group A (n 6), mean x̄, capsule single dose, 720 min) was 69,55 mg/lx12h, the tmax ([2]; mean of all subjects, 200 mg capsule oral) was 33 Minuten and 33,59 Minuten and the AUC ([2]; mean of all subjects, trapezoidal rule, 200 mg capsule oral, 720 min) was 56,45 mg/1 x 12 h. The “Verzögerungszeit (lag-Time) der Resorption” value ([2]; mean, 200 mg capsule oral) was 2,33 Minuten, the “unerwünschte Arzneimittelwirkungen” value ([3]; single or repeated intake) was “zu keinen unerwünschten Arzneimittelwirkungen geführt hat mit Ausnahme der bei einer Probandin aufgetretenen pseudoallergischen Reaktion” and the “laborchemische Parameter und ärztliche Nachuntersuchung” value [3] was “ohne pathologischen Befund”. For the same compound, the Cmax [4] was 23,0 ± 5,2 µg/ml, the “mittlere Schmerzintensität” value (primärer Dysmenorrhör; Zeitpunkt Null (baseline), scale 0 - 10, mean of 24 subjects) was 4,7 and the “mittlere Schmerzintensität” value (primärer Dysmenorrhör; nach 2 Stunden (maximal analgesic effect), scale 0 - 10) was 0,36. The “mittlere Schmerzintensität” value (primärer Dysmenorrhör; nach 6 Stunden, scale 0 - 10) was 0,83, the “Einsetzen der analgetischen Wirksamkeit” value (primärer Dysmenorrhör; onset of analgesia) was at most 5 Minuten and the “mittlere Schmerzintensität” value (primärer Dysmenorrhör; within the first 45 Minuten, scale 0 - 10) was 1,65.
`NCCCC[C@H](N)C(=O)O` [Lysin] gave a pKa (physchem) of 10.5.
`N=C(N)NCCC[C@H](N)C(=O)O` [Arginin] gave a pKa (physchem) of about 12.5.
